One may read the melting point as the temperature, or range, at which the solid turns liquid.

Here are results for 62 molecules from a melting point compilation (Tetko et al.; mined from patent text by program, amines drawn as free bases though some values may be those of a salt).

For `CC(C)(C)C(=O)NCCC(=O)NC1CCCCC1Nc1cccc2c1C(=O)c1ccccc1C2=O` (configuration not stated), the melting point turned out to be 168 °C. `O=C(CN1CCSCC1)N1CCN(Cc2ccc3c(c2)-c2[nH]nc(-c4ccsc4)c2C3)CC1` yielded a melting point of 226 to 228 °C.

`COc1cc(-c2ccc(C)cc2)c(C(C)=NOCc2ccc([N+](=O)[O-])cc2)cc1O`: the melting point lay in the range of 106 to 109 °C.

`CN(C)C(=O)n1nc(N(C)C)c2ccc(Cl)cc21`: the melting point was in the range of 65 to 66 °C. Turning to `CC1CCN(CCCCC(=O)c2ccc3c(c2)Cc2cc(C(=O)CCCCN4CCC(C)CC4)ccc2-3)CC1`, the melting point is 143 to 144 °C. Next, `COc1cc(Cc2nccc3c(OCc4ccccc4)cc(OCc4ccccc4)cc23)cc(OC)c1OC`: 158 to 160 °C; `CN(C)C=C(C(=O)C(C)(C)C)n1ccnc1`: 45 to 50 °C; `O=C(Nc1nnn[nH]1)c1cc2c(cc1[N+](=O)[O-])OCO2`: 279 °C.

`COc1cc(OC2CCN(C(=O)Cc3c[nH]cn3)CC2)ccc1CC(=O)N1CCN(c2ccccc2C)CC1C(N)=O` (configuration not stated) had a melting point of 120 to 124 °C. Then `Cc1nc(N2CCc3ccccc3CC2)c(C#N)c(=O)n1CCN(C)C`, with 134 to 139 °C; and `CCC(=O)NCCSC(=O)CC`, with 48 to 49 °C. For `CCCCCCCCCCCCCCCCOCC(O)CN(CC(O)COCC(O)CO)C(=O)CCCCCCCCCCCCCCC` (configuration not stated), the melting point fell in the range of 78.2 to 79 °C. Next, `Cc1nc(-c2ccc(Br)c(C)c2)no1`: 78 °C; `CS(=O)(=O)c1ccc(-c2nn(CCc3ccccc3)cc2-c2ccc(F)cc2)cc1`: 170 to 171 °C. Then `O=C(c1cccc(OCc2ccccc2)c1)C(CCc1nnn[nH]1)c1ccccc1` (configuration not stated), with 136 to 138 °C; and `COc1ccc(-c2nc(N)sc2-c2ccncc2)cc1`, with 282 to 284 °C; and `COCC1COc2cc3ncnc(Nc4ccc(F)c(Cl)c4)c3cc2O1` (configuration not stated), with 260 to 285 °C.

In turn, `COc1ccc(-c2nc3ccc(C(C)(C)CNS(C)(=O)=O)cc3[nH]2)cc1` showed a melting point of 146 to 148 °C. Then `Cc1c(N2CCC3(CC3N)C2)c(F)c(N)c2c(=O)c(C(=O)O)cn([C@@H]3C[C@@H]3F)c12` (some centres not stated), with 118 to 120 °C. Take `O=C(O)[C@H]1CCCN1C(=O)CCS`: the melting point was in the range of 68 to 70 °C. Then `CCCn1c(=O)n2c(-c3cccs3)nnc2c2c1ncn2C`, with 206 to 207 °C; and `CN1CCC(=O)N(c2cccc(Cl)c2Cl)C1=O`, with 163 to 165 °C.

`CC(=O)NC[C@H]1CN(c2ccc(N3CCC(C#N)(CC#N)CC3)c(F)c2)C(=O)O1` had a melting point of 222 to 224 °C. Next, `O=C(CN1C(=O)c2ccccc2C1=O)Nc1ccccc1-c1ccccc1`: 204 °C; `CCOC(=O)C1(c2ccccc2)CCN(C(C)=O)C(=O)C1` (configuration not stated): 45 to 46 °C. As for `FC(F)(F)c1nnc(Cl)c2cc3ccccn3c12`, the melting point was in the range of 245 to 246 °C. In turn, `COC(=O)C1CC(=NO)c2c(Cl)cc(Cl)cc2N1` (configuration not stated) registered a melting point of 216 to 217 °C. Next, `CCCCN1CC(=O)N(c2cc(Cl)ccc2C)C1=S`: 102 to 103 °C; `CC(C)(C)[Si](C)(C)Oc1ccc(NC(=O)CCCl)cc1`: 126 °C; `COC(=O)[C@@H](C)Oc1ccc(Oc2cnc3ccc(Cl)cc3n2)cc1`: 80 °C. `CC1(C)CC(=O)C2=C(C1)NC1=C(C(=O)CC(C)(C)C1)C2c1ccc2ccccc2c1` displayed a melting point above 300 °C.

Molecule `CCOC(=O)c1ccc(C(=O)CCc2ccc(S(C)(=O)=O)cc2)cc1` showed a melting point of 118 to 120 °C. The molecule `O=C(c1cccs1)c1cnn2c(-c3csc([N+](=O)[O-])c3)ccnc12` yielded a melting point of 225 to 226 °C. Next, `CCOC(=O)c1ncc2c(c1COC)c1c(Cc3ccccc3Cl)cccc1n2S(=O)(=O)c1ccc(C)cc1`: 140 to 142 °C; `N#CCCNC(=O)c1cccc(-c2ccc3c(c2)N(Cc2cccc(Cl)c2Cl)CC3)c1`: 160 to 161 °C; `COC(=O)c1ccc(C(=O)c2ccc3c(c2)C2(C)C4(C)CCC(C4)C2(C)O3)cc1` (configuration not stated): 150 °C. Regarding `CCn1c(=O)n(OCc2ccccc2)c(=O)c2cc(F)c(Cl)nc21`, the melting point was 156 to 157 °C. Then `C/C=C/CC(=O)N[C@H]1CC[C@H](CCN2CCN(c3nccc4c3OCC4)CC2)CC1`, with 170 °C.

For the molecule `CCSc1ccc2c(c1)C(=O)Cc1ccccc1N2C`, the melting point is 54 to 55 °C. Then `CCOC(=O)c1cn(Cc2ccc(OCc3ccccc3)cc2)nc1-c1ccccc1`, with 102 to 103 °C; and `CCOCCCC1(O)c2ccccc2C=Cc2ccc(I)cc21` (configuration not stated), with 95 to 105 °C; and `COC(=O)NNC(=S)Cc1cccs1`, with 74 to 75 °C. The molecule `C#CCN(C(=O)c1ccccc1C(F)(F)F)S(=O)(=O)c1cccc(C)c1` came in with a melting point of 81 to 85 °C. Next, `O=S(=O)(Nc1ccc(C2COc3cc(O)c(O)cc3C2)cc1)c1ccccc1` (configuration not stated): 152 to 154 °C; `Cc1ccccc1-c1ccc(C(=O)N2Cc3ccc(C(=O)NCc4ccccc4)n3Cc3ccccc32)cc1C`: 138 to 141 °C; `O=C(O)C1CC(=S)N(c2cc(C(F)(F)F)cc(C(F)(F)F)c2)C1` (configuration not stated): 141 to 142 °C. Next, `Nc1nc(F)nc2c1ncn2C1OC(CO)C(O)C1F` (configuration not stated): 207 to 209 °C; `CC(C)(C)c1ccccc1N1CCC(N)=N1`: 114 °C; `CC1(C)OC(=O)C(Oc2ccccc2)=C1c1ccc(S(C)(=O)=O)cc1`: 135 to 136 °C. For the molecule `COc1cc(C(=O)N2CCN(C(=O)C3=Cc4cc(C)c(C)cc4OCC3)CC2)cc(OC)c1OC`, the melting point was 177 to 178 °C. `FC(F)(F)c1ccc2nc(N3CCN(c4ncccc4C(F)(F)F)CC3)n(Cc3ccccc3)c2c1` yielded a melting point of 154 to 157 °C.

As for `Cc1cc(-n2ccnc2)c2cccc(OCc3c(Cl)ccc(S(=O)(=O)N4CC[C@H]4C(=O)O)c3Cl)c2n1`, the melting point is 160 °C. Next, `CC(C)CC1(CC(=O)NO)CCN(Cc2ccccc2)C1=O` (configuration not stated): 119 to 120 °C. In turn, `CC(=O)Nc1cnc(C=NNC(N)=S)cc1C` gave a melting point of 229 to 231 °C.

`CC(CN1CC(=O)N(CN2CCOCC2)C(=O)C1)N1CC(=O)NC(=O)C1` (configuration not stated) gave a melting point of 162 to 165 °C.

As for `CSCCN(c1ccc(Cl)cc1[N+](=O)[O-])S(=O)(=O)c1ccc(C)cc1`, the melting point fell in the range of 94.5 to 95.5 °C. Consider `c1cnn(Cc2ccc3c(c2)-c2[nH]nc(-c4ccsc4)c2C3)c1`, for which the melting point lay in the range of 245 to 247 °C. Then `Cc1oc2c(C)c(C)c(N3C(=O)c4ccccc4C3=O)c(C)c2c1-c1ccc(C(C)C)cc1`, with 232 to 234 °C; and `CC(C)CNC(=O)C=CC=Cc1ccc2c(c1)OCO2`, with 156 to 160 °C. Then `CC(C)(C)OC(=O)Cc1ccc(CNC(=O)C2Cc3ccccc3N2S(=O)(=O)c2ccc(-c3cccc(C(F)(F)F)c3)cc2)cn1` (configuration not stated), with 70 °C. In the case of `COCCCNc1nc(N)c(Cl)c(Cl)n1`, the melting point was found to be 114 °C. For the molecule `Cn1cc(Br)cc1C=O`, the melting point lay within 123 to 124 °C.
